Experiments:
[1] = target: T1, P-gp (Homo sapiens, UniProt P08183); experiment: in vitro transporter substrate study; type: in vitro ADME
[2] = target: T1, P-gp; experiment: in vitro transporter inhibition study; type: in vitro ADME
[3] = target: CYP 2D6 (Homo sapiens, UniProt P10635)
[4] = target: CYP 2C9 (Homo sapiens, UniProt P11712)
[5] = target: T2, CYP 2C8 (Homo sapiens, UniProt P10632)
T2 sequence (P10632 1-490): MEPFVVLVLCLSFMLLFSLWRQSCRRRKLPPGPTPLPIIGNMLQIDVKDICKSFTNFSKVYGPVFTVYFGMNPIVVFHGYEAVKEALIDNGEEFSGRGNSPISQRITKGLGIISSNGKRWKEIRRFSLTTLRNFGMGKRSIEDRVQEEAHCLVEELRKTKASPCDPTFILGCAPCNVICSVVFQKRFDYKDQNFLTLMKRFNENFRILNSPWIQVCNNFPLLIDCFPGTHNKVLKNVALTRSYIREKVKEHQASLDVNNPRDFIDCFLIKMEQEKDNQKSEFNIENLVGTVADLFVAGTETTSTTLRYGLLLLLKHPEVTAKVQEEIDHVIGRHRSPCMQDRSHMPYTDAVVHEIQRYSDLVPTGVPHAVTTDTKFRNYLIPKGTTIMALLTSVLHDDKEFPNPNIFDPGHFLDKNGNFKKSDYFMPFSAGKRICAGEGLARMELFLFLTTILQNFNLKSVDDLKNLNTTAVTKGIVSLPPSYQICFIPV

[6] = target: CYP 2C19 (Homo sapiens, UniProt P33261)
Sequence of CYP 2C19 (P33261 whole entry): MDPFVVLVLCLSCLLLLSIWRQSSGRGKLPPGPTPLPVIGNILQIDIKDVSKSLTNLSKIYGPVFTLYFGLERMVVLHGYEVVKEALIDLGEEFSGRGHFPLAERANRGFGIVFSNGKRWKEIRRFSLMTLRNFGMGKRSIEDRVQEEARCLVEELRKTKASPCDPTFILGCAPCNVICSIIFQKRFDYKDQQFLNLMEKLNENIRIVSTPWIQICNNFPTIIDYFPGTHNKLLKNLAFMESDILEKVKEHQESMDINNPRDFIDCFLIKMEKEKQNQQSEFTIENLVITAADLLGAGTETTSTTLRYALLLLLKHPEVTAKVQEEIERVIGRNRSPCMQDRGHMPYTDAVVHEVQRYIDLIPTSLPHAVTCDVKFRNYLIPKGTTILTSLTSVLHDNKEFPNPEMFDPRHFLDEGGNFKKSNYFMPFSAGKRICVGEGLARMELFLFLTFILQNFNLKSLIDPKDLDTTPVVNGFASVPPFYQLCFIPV

[7] = target: T3, CYP 2B6 (Homo sapiens, UniProt P20813)
T3 sequence (P20813 1-491): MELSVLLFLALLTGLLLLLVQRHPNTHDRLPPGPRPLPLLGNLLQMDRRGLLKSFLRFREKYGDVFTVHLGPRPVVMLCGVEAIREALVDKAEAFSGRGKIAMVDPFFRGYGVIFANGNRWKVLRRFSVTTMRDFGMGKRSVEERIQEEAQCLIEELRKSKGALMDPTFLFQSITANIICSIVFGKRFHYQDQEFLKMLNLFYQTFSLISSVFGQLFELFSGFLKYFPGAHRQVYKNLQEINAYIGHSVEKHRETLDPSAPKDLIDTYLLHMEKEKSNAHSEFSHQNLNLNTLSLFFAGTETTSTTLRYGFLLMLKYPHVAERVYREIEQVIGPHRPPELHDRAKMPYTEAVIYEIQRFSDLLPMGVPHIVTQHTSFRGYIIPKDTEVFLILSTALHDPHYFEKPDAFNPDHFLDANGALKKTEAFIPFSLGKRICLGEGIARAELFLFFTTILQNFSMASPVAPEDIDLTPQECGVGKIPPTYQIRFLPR

[8] = tested on: CYP 3A4/5
[9] = target: T4, CYP 1A2 (Homo sapiens, UniProt P05177)
T4 sequence (P05177 1-516): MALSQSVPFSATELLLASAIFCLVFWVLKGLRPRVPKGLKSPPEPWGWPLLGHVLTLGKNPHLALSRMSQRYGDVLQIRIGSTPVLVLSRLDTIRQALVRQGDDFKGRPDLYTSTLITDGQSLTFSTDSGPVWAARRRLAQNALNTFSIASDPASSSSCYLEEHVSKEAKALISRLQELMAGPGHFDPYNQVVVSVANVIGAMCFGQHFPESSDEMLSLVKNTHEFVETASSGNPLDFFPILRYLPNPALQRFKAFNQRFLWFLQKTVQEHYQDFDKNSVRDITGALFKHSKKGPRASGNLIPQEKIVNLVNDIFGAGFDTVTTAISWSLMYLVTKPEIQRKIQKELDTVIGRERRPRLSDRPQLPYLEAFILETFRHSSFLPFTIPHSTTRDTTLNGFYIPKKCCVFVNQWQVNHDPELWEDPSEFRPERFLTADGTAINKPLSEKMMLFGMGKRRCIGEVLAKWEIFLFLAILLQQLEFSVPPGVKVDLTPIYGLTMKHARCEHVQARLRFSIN

T1 sequence (P08183 whole entry): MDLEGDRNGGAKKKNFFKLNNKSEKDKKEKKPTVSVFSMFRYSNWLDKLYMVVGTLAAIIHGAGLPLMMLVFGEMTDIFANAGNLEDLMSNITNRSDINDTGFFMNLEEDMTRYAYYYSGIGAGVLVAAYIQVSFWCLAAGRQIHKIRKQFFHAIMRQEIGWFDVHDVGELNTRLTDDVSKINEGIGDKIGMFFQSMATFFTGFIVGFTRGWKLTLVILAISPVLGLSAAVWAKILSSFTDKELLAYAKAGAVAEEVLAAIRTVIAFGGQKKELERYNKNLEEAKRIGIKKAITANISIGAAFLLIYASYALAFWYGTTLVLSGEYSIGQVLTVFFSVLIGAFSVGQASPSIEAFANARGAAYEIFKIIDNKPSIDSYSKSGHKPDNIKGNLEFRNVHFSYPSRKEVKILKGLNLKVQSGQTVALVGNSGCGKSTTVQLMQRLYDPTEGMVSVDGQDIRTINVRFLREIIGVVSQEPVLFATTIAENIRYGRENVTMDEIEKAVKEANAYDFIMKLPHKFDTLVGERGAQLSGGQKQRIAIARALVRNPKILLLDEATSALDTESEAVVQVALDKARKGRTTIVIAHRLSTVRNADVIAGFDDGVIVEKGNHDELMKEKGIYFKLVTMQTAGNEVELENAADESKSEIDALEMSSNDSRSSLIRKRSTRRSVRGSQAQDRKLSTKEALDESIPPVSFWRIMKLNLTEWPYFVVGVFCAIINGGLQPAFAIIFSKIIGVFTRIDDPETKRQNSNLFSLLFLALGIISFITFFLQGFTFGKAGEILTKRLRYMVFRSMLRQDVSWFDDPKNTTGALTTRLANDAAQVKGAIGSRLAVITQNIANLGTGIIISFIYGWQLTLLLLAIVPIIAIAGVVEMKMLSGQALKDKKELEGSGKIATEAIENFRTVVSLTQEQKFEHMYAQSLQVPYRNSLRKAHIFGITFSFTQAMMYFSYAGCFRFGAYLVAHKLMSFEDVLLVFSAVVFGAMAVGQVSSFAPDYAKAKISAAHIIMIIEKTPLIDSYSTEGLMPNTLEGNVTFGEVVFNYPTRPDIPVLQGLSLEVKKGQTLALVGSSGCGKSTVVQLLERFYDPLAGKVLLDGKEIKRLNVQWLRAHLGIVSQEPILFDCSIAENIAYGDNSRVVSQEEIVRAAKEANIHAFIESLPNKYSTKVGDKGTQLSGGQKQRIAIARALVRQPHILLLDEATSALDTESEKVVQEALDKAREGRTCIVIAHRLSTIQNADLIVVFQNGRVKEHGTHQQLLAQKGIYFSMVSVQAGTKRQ
Sequence of CYP 2D6 (P10635 whole entry): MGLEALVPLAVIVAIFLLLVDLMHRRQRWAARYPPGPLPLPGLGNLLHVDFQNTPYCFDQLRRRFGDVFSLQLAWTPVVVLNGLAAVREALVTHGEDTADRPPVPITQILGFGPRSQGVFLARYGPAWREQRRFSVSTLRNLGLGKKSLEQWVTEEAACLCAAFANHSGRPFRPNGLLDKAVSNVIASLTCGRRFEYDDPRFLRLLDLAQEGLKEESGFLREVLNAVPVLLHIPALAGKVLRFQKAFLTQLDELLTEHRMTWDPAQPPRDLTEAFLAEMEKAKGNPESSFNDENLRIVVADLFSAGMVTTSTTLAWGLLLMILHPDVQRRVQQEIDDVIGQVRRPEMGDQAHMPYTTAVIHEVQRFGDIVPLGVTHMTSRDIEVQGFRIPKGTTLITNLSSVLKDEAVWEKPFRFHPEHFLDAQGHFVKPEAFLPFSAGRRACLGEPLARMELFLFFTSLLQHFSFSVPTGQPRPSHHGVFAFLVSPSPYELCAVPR
Sequence of CYP 2C9 (P11712 whole entry): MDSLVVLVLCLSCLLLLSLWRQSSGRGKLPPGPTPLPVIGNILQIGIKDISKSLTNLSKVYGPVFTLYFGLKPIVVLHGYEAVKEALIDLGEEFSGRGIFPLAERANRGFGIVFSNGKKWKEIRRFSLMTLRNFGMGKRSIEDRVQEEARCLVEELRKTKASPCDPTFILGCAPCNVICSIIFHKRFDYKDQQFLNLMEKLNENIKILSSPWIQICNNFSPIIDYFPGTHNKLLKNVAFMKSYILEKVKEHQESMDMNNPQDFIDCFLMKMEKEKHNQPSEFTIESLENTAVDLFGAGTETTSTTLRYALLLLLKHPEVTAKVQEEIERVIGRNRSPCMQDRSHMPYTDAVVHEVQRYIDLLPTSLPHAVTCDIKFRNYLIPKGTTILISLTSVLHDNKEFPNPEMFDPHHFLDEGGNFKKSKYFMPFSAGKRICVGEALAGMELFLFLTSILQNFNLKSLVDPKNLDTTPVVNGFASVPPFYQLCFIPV

CN(C)c1ccc2nc3ccc(=[N+](C)C)cc-3sc2c1 [Methylene blue, Methylthioninium Chloride (Methylene Blue)]
inhibits: inhibition of CYP isozyme 2D6 [3] | inhibition of CYP isozyme 2C9 [4] | inhibition of CYP isozyme 2C8 [5] | inhibition of CYP isozyme 2C19 [6] | inhibition of CYP isozyme 2B6 [7] | inhibition of CYP isozyme 3A4/5 [8] | inhibition of CYP isozyme 1A2 [9]
weak inhibitor: inhibitor of P-gp [2]
possible substrate: substrate of membrane transport protein P-gp [1]
